# In patent US11840686B2, “Modulation of prekallikrein (PKK) expression” (Ionis Pharmaceuticals, Inc., priority 2013, dated 2023):
# Strand notation (5' to 3'): a small letter for the sugar, then the base; units joined by * are phosphorothioate-linked, units joined directly phosphodiester-linked; [ ] holds rarer units or linkages, { } end groups; capitals alone tell only the bases. e = 2'-O-(2-methoxyethyl) (MOE); [5mC] = 5-methylcytosine; d = 2'-deoxy (DNA)
# Tests used:
# human PKK mRNA = assay: Dose-dependent antisense inhibition of human PKK in HepaRG cells, 0.12-10.00 uM (Example 4); assay type: cell-based; conditions: electroporation, ~16 h
# Description: Cells were plated at a density of 20,000 cells per well and transfected using electroporation with 0.12 μM, 0.37 μM, 1.11 μM, 3.33 μM, and 10.00 μM concentrations of antisense oligonucleotide. After a treatment period of approximately 16 hours, RNA was isolated from the cells and PKK mRNA levels were measured by quantitative real-time PCR. Human PKK primer probe set RTS3454 was used to measure mRNA levels. PKK mRNA levels were adjusted according to total RNA content, as measured by RIBOGREEN®. The antisense oligonucleotides were tested in a series of experiments that had similar culture conditions. Results are presented as percent inhibition of PKK, relative to untreated control cells.
# The half maximal inhibitory concentration (IC50) of each oligonucleotide is also presented.
# [1] = C-reactive protein and complement C3 levels in cynomolgus monkeys (Example 8); conditions: cynomolgus monkey plasma, 40 mg/kg sc
# Description: Prior to the study, the monkeys were kept in quarantine for a 30-day period, during which the animals were observed daily for general health. The monkeys were 2-4 years old and weighed between 2 and 4 kg. Ten groups of four randomly assigned male cynomolgus monkeys each were injected subcutaneously with ISIS oligonucleotide or PBS. PBS solution or ISIS oligonucleotides at a dose of 40 mg/kg were administered initially with a loading regimen consisting of four doses on the first week of the study (days 1, 3, 5, and 7), followed by a maintenance regimen consisting of once weekly administration starting on Day 14 (weeks 2 to 13). Subcutaneous injections were performed in clock-wise rotations at 4 sites on the back; one site per dose. The injection sites were delineated by tattoo, while sedated using ketamine, and were separated by a minimum of 3 cm.
# To evaluate any inflammatory effect of ISIS oligonucleotides in cynomolgus monkeys, the monkeys were fasted overnight. Approximately, 1.5 mL of blood samples were collected from all the study groups. Blood was collected in tubes without anticoagulant for serum separation. The tubes were kept at room temperature for a minimum of 90 min and then centrifuged at 3,000 rpm for 10 min. C-reactive protein (CRP), which is synthesized in the liver and which serves as a marker of inflammation, was measured using a Toshiba 120FR NEO chemistry analyzer (Toshiba Co., Japan). Complement C3 was also measured similarly, and the data is presented as a percentage of baseline values.
# PKK protein = PKK protein in cynomolgus monkey plasma by ELISA (Example 8); assay type: in vivo; conditions: 40 mg/kg sc
# Description: Approximately 0.9 mL of blood was collected each time from all available animals at pre-dose, day 17, day 31, day 45, day 59, and day 73, and placed in tubes containing 3.2% sodium citrate. The tubes were centrifuged (3000 rpm for 10 min at room temperature) to obtain plasma. PKK protein levels were measured in the plasma by ELISA. The results are presented in Table 52, expressed as percentage inhibition compared to the PBS control levels.
# [2] = tested on: captopril and ISIS 461756-induced vascular permeability; assay: Evans Blue vascular permeability in captopril and ISIS 461756-induced angioedema mouse models (Example 11); assay type: in vivo; conditions: for OD600 nm of Evans Blue dye, Colons / OD600 nm of Evans Blue dye, Ears / OD600 nm of Evans Blue dye, Feet / OD600 nm of Evans Blue dye, Intestines: captopril Yes
# From the text: Hereditary angioedema (HAE) is characterized by local swelling and increase in vascular permeability in subcutaneous tissues (Morgan, B. P. N. Engl. J. Med. 363: 581-83, 2010). It is caused by a deficiency of the C1 inhibitor, a protein of the complement system. Two mouse models were used in this study including an established mouse model of C1-INH deficiency and a captopril-induced edema model, both of which cause vascular permeability, a hallmark of HAE. Reversal of vascular permeability is accompanied by increased plasma levels of high molecular weight kininogen (HMWK).
# In the first model, angioedema was induced by treatment with Captopril, a known antihypertensive agent, which increases vascular permeability in mice and replicates the pathology of hereditary angioedema.
# In the second model, angioedema was induced by treatment with ISIS 461756, an antisense oligonucleotide which targets murine C1 inhibitor mRNA, which increases vascular permeability in mice and replicates the pathology of hereditary angioedema. ISIS 461756 (SEQ ID NO: 2245; […]) is a 5-10-5 MOE gapmer targeting nucleosides 1730-1749 of NM_009776.3 (SEQ ID NO: 2243).
# The effect of HOE-140 and ISIS 482584, an antisense oligonucleotide inhibitor of PKK, were evaluated in the Captopril and ISIS 461756-induced mouse models of vascular permeability. Some of the murine groups were treated with HOE-140, a selective antagonist of the bradykinin B2 receptor, which blocks vasodilation and vascular permeability (Cruden and Newby, Expert Opin. Pharmacol. 9: 2383-90, 2008). Other mice were treated with ISIS 482584, which inhibits PKK mRNA expression. The effect of treatment with HOE-140 was compared with the effect of treatment with ISIS 482584.
# Group 1 consisted of 4 C57BL/6J-Tyrc-2J mice treated with PBS administered subcutaneously twice a week for 4 weeks. No other treatment was administered to Group 1 which served as a control group to measure the basal level of vascular permeability.
# Group 2 consisted of 8 C57BL/6J-Tyrc-2J mice treated with PBS administered subcutaneously twice a week for 4 weeks. At the end of the treatment, the mice were intraperitoneally administered 20 μg of captopril. Group 2 served as a PBS control group for captopril-induced vascular permeability.
# (§1) Group 3 consisted of 8 C57BL/6J-Tyrc-2J mice treated with PBS administered subcutaneously twice a week for 4 weeks. On day 14, the mice were treated with 50 mg/kg of the antisense oligonucleotide targeting C1 inhibitor, ISIS 461756, administered subcutaneously twice a week for 2 weeks. At the end of the treatment period, the mice were intraperitoneally administered 20 μg of captopril. Group 3 served as a PBS control group for captopril and ISIS 461756-induced vascular permeability.
# Group 4 consisted of 8 C57BL/6J-Tyrc-2J mice treated with PBS administered subcutaneously twice a week for 4 weeks. On day 14, the mice were treated with 50 mg/kg of the antisense oligonucleotide targeting C1 inhibitor, ISIS 461756, administered subcutaneously twice a week for 2 weeks. At the end of the treatment period, the mice were intraperitoneally administered 20 μg of captopril. The mice were then also intraperitoneally administered 30 μg of HOE-140. Group 4 served as a positive control for inhibition of vascular permeability with HOE-140.
# as §1, with “5” for “3”, “40 mg/kg of control oligonucleotide ISIS 141923, a 5-10-5 MOE gapmer with no known murine target, ([…]; SEQ ID NO: 2246)” for “PBS”, “a” for “a PBS”, “permeability. […]” for “permeability.”
# [3] = ISIS 461756 No, 40 mg/kg sc twice a week 4 weeks
# [4] = ISIS 461756 Yes, ISIS oligonucleotides 40 mg/kg sc twice a week 4 weeks, HOE-140 30 μg ip
molecule,measurement,setting,value
531231 (eT*eA*eT*e[5mC]*eA*d[5mC]*dT*dG*dT*dA*d[5mC]*dT*dA*dG*dT*eT*eT*e[5mC]*e[5mC]*eT) [compound 531231],percent inhibition of PKK at 0.12 μM,"human PKK mRNA; Table 32, 0.12 μM",23%
same,percent inhibition of PKK at 0.37 μM,"human PKK mRNA; Table 32, 0.37 μM",30%
same,percent inhibition of PKK at 1.11 μM,"human PKK mRNA; Table 32, 1.11 μM",76%
same,percent inhibition of PKK at 3.33 μM,"human PKK mRNA; Table 32, 3.33 μM",89%
same,percent inhibition of PKK at 10.00 μM,"human PKK mRNA; Table 32, 10.00 μM",94%
same,IC50,"human PKK mRNA; Table 32, PKK mRNA",0.6 µM
same,percent inhibition of PKK at 0.12 μM,"human PKK mRNA; Table 33, 0.12 μM",18%
same,percent inhibition of PKK at 0.37 μM,"human PKK mRNA; Table 33, 0.37 μM",0%
same,percent inhibition of PKK at 1.11 μM,"human PKK mRNA; Table 33, 1.11 μM",36%
same,percent inhibition of PKK at 3.33 μM,"human PKK mRNA; Table 33, 3.33 μM",76%
same,percent inhibition of PKK at 10.00 μM,"human PKK mRNA; Table 33, 10.00 μM",84%
same,IC50,"human PKK mRNA; Table 33, PKK mRNA",2 µM
Tes Ges mCes Aes Aes Gds Tds mCds Tds mCds Tds Tds Gds Gds mCds Aes Aes Aes mCes Ae [ISIS 546254],C3 (% of baseline),[1],61 % of baseline
same,CRP,[1],0.8 mg/dL
same,PKK protein level reduction (%) in plasma relative to control levels,PKK protein; Day 17,38%
same,PKK protein level reduction (%) in plasma relative to control levels,PKK protein; Day 31,51%
same,PKK protein level reduction (%) in plasma relative to control levels,PKK protein; Day 45,63%
same,PKK protein level reduction (%) in plasma relative to control levels,PKK protein; Day 59,74%
same,PKK protein level reduction (%) in plasma relative to control levels,PKK protein; Day 73,73%
"ISIS 482584: 5-10-5 MOE gapmer targeting murine PKK, GGCATATTGGTTTTTGGAAT; SEQ ID NO: 2244 (antisense eG*eG*e[5mC]*eA*eT*dA*dT*dT*dG*dG*dT*dT*dT*dT*dT*eG*eG*eA*eA*eT)",vascular permeability,"[2]; 40 mg/kg s.c. twice a week for 4 weeks, mice treated with captopril or captopril and ISIS 461756, vs PBS controls",prevents vascular permeability
same,"OD600 nm of Evans Blue dye, Colons",[2]; [3],0.27
same,"OD600 nm of Evans Blue dye, Ears",[2]; [3],0.14
same,"OD600 nm of Evans Blue dye, Feet",[2]; [3],0.07
same,"OD600 nm of Evans Blue dye, Intestines",[2]; [3],0.30
same,"OD600 nm of Evans Blue dye, Colons",[2]; [4],0.21
same,"OD600 nm of Evans Blue dye, Ears",[2]; [4],0.06
same,"OD600 nm of Evans Blue dye, Feet",[2]; [4],0.07
same,"OD600 nm of Evans Blue dye, Intestines",[2]; [4],0.34
"NC(N)=NCCC[C@@H](N)C(=O)N[C@@H](CCCN=C(N)N)C(=O)N1CCC[C@H]1C(=O)N1C[C@H](O)C[C@H]1C(=O)NCC(=O)N[C@@H](Cc1cccs1)C(=O)N[C@@H](CO)C(=O)N1Cc2ccccc2C[C@@H]1C(=O)N1[C@H](C(=O)N[C@@H](CCCN=C(N)N)C(=O)O)C[C@@H]2CCCC[C@@H]21 [HOE-140, Icatibant, reference compound]","OD600 nm of Evans Blue dye, Colons",[2]; [4],0.14
same,"OD600 nm of Evans Blue dye, Ears",[2]; [4],0.09
same,"OD600 nm of Evans Blue dye, Feet",[2]; [4],0.07
same,"OD600 nm of Evans Blue dye, Intestines",[2]; [4],0.18
